# Source: US12098151B2 (priority 2018, dated 2024)
# Read-outs that look alike come from different tables or passages of the source.
# Columns and labels:
# [1] = system: LCMV; test: microbe, parasite or virus in culture; assay type: cell-based, lymphocytic choriomeningitis virus (LCMV)
# [2] = system: Junin virus; test: microbe, parasite or virus in culture; assay type: cell-based
# [3] = Mammarenavirus choriomeningitidis, KB, 96 h
# [4] = Mammarenavirus juninense, HEK-293T, 96 h
Compound,"EC50 [1, 3] [nM]","EC50 [2, 4] [nM]",further results
"CC(C)N1CN(C2c3ccccc3C3C(c4ccccc42)C3(F)F)n2cc(C(=O)O)c(=O)c(O)c2C1=O (single isomer, unassigned) [III-010]",9.9,10,
O=C(O)c1cn2c(c(O)c1=O)C(=O)N1CCOC[C@H]1N2[C@@H]1c2ccccc2SCc2c1ccc(F)c2F [Compound I-001],,,EC50 ([1]; read-out: EC50): 115 nM; EC50 ([2]; read-out: EC50): 111 nM
C[C@@H](N1CN([C@H]2c3ccccc3CSc3ccccc32)n2cc(C(=O)O)c(=O)c(O)c2C1=O)C(F)(F)F [Compound I-004],12,15,
CCN1CN(C(c2ccccc2)c2ccccc2)n2cc(C(=O)O)c(=O)c(O)c2C1=O [Compound I-005],53,28,
CC1N(C)C(=O)c2c(O)c(=O)c(C(=O)O)cn2N1C(c1ccccc1)c1ccccc1 (centres unmarked) [Compound I-006],136,36,
CCN1C(=O)c2c(O)c(=O)c(C(=O)O)cn2C(C(c2ccccc2)c2ccccc2)N1CC (centres unmarked) [Compound I-007],65,138,
CN1CN(C(c2ccccc2)c2ccccc2)n2cc(C(=O)O)c(=O)c(O)c2C1=O [Compound I-008],205,239,
CN1C(=O)c2c(O)c(=O)c(C(=O)O)cn2C(C(c2ccccc2)c2ccccc2)N1C (centres unmarked) [Compound I-009],143,405,
CCN1CN(Cc2ccc(-c3ccccc3)cc2)n2cc(C(=O)O)c(=O)c(O)c2C1=O [Compound I-010],328,579,
CC1Nn2cc(C(=O)O)c(=O)c(O)c2C(=O)N1C (centres unmarked) [Compound I-011],1930,1670,
COCCN1C[C@H](C(c2ccccc2)c2ccccc2)n2cc(NC(=O)OC)c(=O)c(O)c2C1=O [Compound I-012],,3000,
CC(C)N1CN(C2c3ccccc3CSc3ccccc32)n2cc(C(=O)O)c(=O)c(O)c2C1=O (centres unmarked) [Compound I-019],,,EC50 [1]: 2.2 nM; EC50 [2]: 6.9 nM
O=C(O)c1cn2c(c(O)c1=O)C(=O)N(Cc1ccc(F)cc1F)C[C@@H]2C(c1ccccc1)c1ccccc1 [Compound I-020],5.9,7.1,
COCCN1C(=O)c2c(O)c(=O)c(C(=O)O)cn2N(C2c3ccccc3CCc3ccccc32)C1CCSC (centres unmarked) [Compound I-022],1.6,10,
O=C(O)c1cn2c(c(O)c1=O)C(=O)N(Cc1cccc(Cl)c1F)C[C@@H]2C(c1ccccc1)c1ccccc1 [Compound I-023],2.2,11,
CC(C)=CCN1C[C@H](C(c2ccccc2)c2ccccc2)n2cc(C(=O)O)c(=O)c(O)c2C1=O [Compound I-024],14,12,
O=C(O)c1cn2c(c(O)c1=O)C(=O)N(Cc1ccccn1)C[C@@H]2C(c1ccccc1)c1ccccc1 [Compound I-025],5,13,
O=C(O)c1cn2c(c(O)c1=O)C(=O)N(CC1CCCCO1)C[C@@H]2C(c1ccccc1)c1ccccc1 (some centres unmarked) [Compound I-026],6.9,17,
Cc1cc(CN2C[C@H](C(c3ccccc3)c3ccccc3)n3cc(C(=O)O)c(=O)c(O)c3C2=O)no1 [Compound I-027],9.4,19,
O=C(O)c1cn2c(c(O)c1=O)C(=O)N(CC1CC1)C[C@@H]2C(c1ccccc1)c1ccccc1 [Compound I-028],13,40,
CN1C[C@H](C2c3ccccc3CSc3ccccc32)n2cc(C(=O)O)c(=O)c(O)c2C1=O (some centres unmarked) [Compound I-029],< 31,42,

Compound,"EC50 [1, 3] [nM]","EC50 [2, 4] [nM]",further results
O=C(O)c1cn2c(c(O)c1=O)C(=O)N(Cc1cccnc1)C[C@@H]2C(c1ccccc1)c1ccccc1 [Compound I-030],31,44,
CCCC(C)N1C[C@H](C(c2ccccc2)c2ccccc2)n2cc(C(=O)O)c(=O)c(O)c2C1=O (some centres unmarked) [Compound I-031],20,45,
CCCN1C[C@H](C(c2ccccc2)c2ccccc2)n2cc(C(=O)O)c(=O)c(O)c2C1=O [Compound I-032],18,64,
CCC(C)N1C[C@H](C(c2ccccc2)c2ccccc2)n2cc(C(=O)O)c(=O)c(O)c2C1=O (some centres unmarked) [Compound I-033],15,68,
O=C(O)c1cn2c(c(O)c1=O)C(=O)N(CC1CCOCC1)C[C@@H]2C(c1ccccc1)c1ccccc1 [Compound I-034],32,68,
CC(C)OCCN1C[C@H](C(c2ccccc2)c2ccccc2)n2cc(C(=O)O)c(=O)c(O)c2C1=O [Compound I-035],< 6,71,
COCCN1C(=O)c2c(O)c(=O)c(C(=O)O)cn2C[C@H]1C(c1ccccc1)c1ccccc1 [Compound I-036],69,74,
CC(C)N1C[C@H](C(c2ccccc2)c2ccccc2)n2cc(C(=O)O)c(=O)c(O)c2C1=O [Compound I-037],24,82,
CCOCCN1C[C@H](C(c2ccccc2)c2ccccc2)n2cc(C(=O)O)c(=O)c(O)c2C1=O [Compound I-038],28,148,
COCCN1C[C@H](C(c2ccccc2)c2ccccc2)n2cc(C(=O)O)c(=O)c(O)c2C1=O [Compound I-039],17,240,
C#CCN1C[C@H](C(c2ccccc2)c2ccccc2)n2cc(C(=O)O)c(=O)c(O)c2C1=O [Compound I-040],44,173,
O=C(O)c1cn2c(c(O)c1=O)C(=O)N(Cc1ccccc1)C[C@@H]2C(c1ccccc1)c1ccccc1 [Compound I-041],6.2,180,
CN1C(=O)c2c(O)c(=O)c(C(=O)O)cn2C[C@H]1C(c1ccccc1)c1ccccc1 [Compound I-042],58,255,
O=C(O)c1cn2c(c(O)c1=O)C(=O)N1CCCCN1C2C(c1ccccc1)c1ccccc1 (centres unmarked) [Compound I-043],119,281,
COCCCN1C[C@H](C(c2ccccc2)c2ccccc2)n2cc(C(=O)O)c(=O)c(O)c2C1=O [Compound I-044],40,354,
COCCN1C[C@H](C(c2ccccc2)c2ccccc2)n2cc(C(=O)O)c(=O)c(O)c2C1=O [Compound I-045],,,EC50 [1]: 24 nM; EC50 [2]: 374 nM
CN1C[C@H](C(c2ccccc2)c2ccccc2)n2cc(C(=O)O)c(=O)c(O)c2C1=O [Compound I-046],69,382,
O=C(O)c1cn2c(c(O)c1=O)C(=O)N1CCCO[C@H]1[C@@H]2C(c1ccccc1)c1ccccc1 [Compound I-047],372,414,
O=C(O)c1cn2c(c(O)c1=O)C(=O)N(CCOc1ccc(F)cc1)C[C@@H]2C(c1ccccc1)c1ccccc1 [Compound I-048],56,518,
O=C(O)c1cn2c(c(O)c1=O)C(=O)N(CC(F)(F)F)C[C@@H]2C(c1ccccc1)c1ccccc1 [Compound I-049],160,620,
O=C(O)c1cn2c(c(O)c1=O)C(=O)N1CCCO[C@@H]1[C@@H]2C(c1ccccc1)c1ccccc1 [Compound I-050],,640,

Compound,"EC50 [1, 3] [nM]","EC50 [2, 4] [nM]",further results
O=C(O)c1cn2c(c(O)c1=O)C(=O)N(Cc1ccccc1)CC2Cc1ccccc1 (centres unmarked) [Compound I-051],722,739,
O=C(O)c1cn2c(c(O)c1=O)C(=O)N(Cc1ccc(F)cc1)CN2Cc1ccc(-c2ccccc2)cc1 [Compound I-052],,751,
O=C(O)c1cn2c(c(O)c1=O)C(=O)NC[C@@H]2C(c1ccccc1)c1ccccc1 [Compound I-053],275,987,
O=C(O)c1cn2c(c(O)c1=O)C(=O)N1CCCO[C@@H]1[C@@H]2Cc1ccccc1 [Compound I-054],1960,1620,
CC(C)N1CC(Cc2ccccc2)n2cc(C(=O)O)c(=O)c(O)c2C1=O (centres unmarked) [Compound I-055],,1870,
COCCN1C[C@H](CC2CCCCC2)n2cc(C(=O)O)c(=O)c(O)c2C1=O [Compound I-056],,2030,
COCCN1C[C@H](Cc2ccccc2)n2cc(C(=O)O)c(=O)c(O)c2C1=O [Compound I-057],225,2180,
O=C(O)c1cn2c(c(O)c1=O)C(=O)N[C@H](C(c1ccccc1)c1ccccc1)C2 [Compound I-059],772,,
O=C(O)c1cn2c(c(O)c1=O)C(=O)N1CCCO[C@H]1[C@@H]2Cc1ccccc1 [Compound I-062],2410,,
O=C(O)CN1C[C@H](C(c2ccccc2)c2ccccc2)n2cc(C(=O)O)c(=O)c(O)c2C1=O [Compound I-063],280,,
CCOC(=O)c1cn2c(c(O)c1=O)C(=O)N(CCOC)C[C@@H]2C(c1ccccc1)c1ccccc1 [Compound I-066],250,,
CCN1CN(C(c2ccccc2)c2ccccc2)n2c(C)c(C(=O)O)c(=O)c(O)c2C1=O [Compound I-072],,,EC50 ([2]; read-out: EC50): 14 nM
CCN1CN(Cc2ccc(-c3ccccc3OC)s2)n2c(C)c(C(=O)O)c(=O)c(O)c2C1=O [Compound I-073],,,EC50 ([2]; read-out: EC50): 65 nM
CC(C)N1CN(C2c3cc(F)c(F)cc3CCc3cc(F)c(F)cc32)n2cc(C(=O)O)c(=O)c(O)c2C1=O [Compound I-074],48,50,
Cc1cccc2c1CCc1c(C)cccc1C2N1CN(C(C)C)C(=O)c2c(O)c(=O)c(C(=O)O)cn21 [Compound I-075],3.1,1.7,
Cc1ccc2c(c1)CCc1cc(C)ccc1C2N1CN(C(C)C)C(=O)c2c(O)c(=O)c(C(=O)O)cn21 [Compound I-076],13,34,
CC(C)N1CN(C2c3cccc(F)c3CCc3c(F)cccc32)n2cc(C(=O)O)c(=O)c(O)c2C1=O [Compound I-077],3.3,1.8,
COCCN1CN(C2c3ccccc3CCc3ccccc32)n2cc(C(=O)O)c(=O)c(O)c2C1=O [Compound I-079],5.3,5,
CC(C)N1CN(Cc2ccccc2-c2ccccc2)n2cc(C(=O)O)c(=O)c(O)c2C1=O [Compound I-080],499,437,
CCN(CC)CCN1CN(C2c3ccccc3CCc3ccccc32)n2cc(C(=O)O)c(=O)c(O)c2C1=O [III-022],> 1000,,
CC(C)N1CN(Cc2ccccc2)n2cc(C(=O)O)c(=O)c(O)c2C1=O [III-026],> 1000,,
